Type in all cases: cell-based
Data set [1] relates to E. coli strain DPD2444 (yhcP::TN<Kan>). The data set can be described thus: MIC, 2-fold dilutions, Vogel-Bonner medium with 0.4% glucose. Particulars: Escherichia coli, read-out: MIC for pHCA. An excerpt: (§1) The yhcP::TN<Kan> was introduced into E. coli strain MG1655 (obtained from Prof. Douglas Berg, Washington University School of Medicine, St. Louis, […].) by P1clr100 Cm mediated transduction to kanamycin resistance using phage lysates of E. coli strain DPD2443. One of the resultant kanamycin resistant transductants was named DPD2444.

The next data set concerns E. coli strain MG1655. Described as above. Particulars: Escherichia coli, overnight at 37° C., read-out: MIC for pHCA.
Excerpt: as §1

Data set [2] has as its system E. coli strain DPD3313 (MG1655 with pTrcHis2TOPO®/lacZ). Nature of the data set: pHCA MIC, 2-fold dilutions, Vogel-Bonner medium with 0.4% glucose. Particulars: Escherichia coli, no IPTG, overnight at 37° C. The protocol: (§2) The pHCA MICs for E. coli strains DPD3313 and DPD3314 were determined. […] IPTG was not added to the medium because the trc promoter has substantial activity in its absence.

The test system of data set [3] is E. coli strain DPD3314 (MG1655 with pDEW668, multicopy yhcRQP). The description is as above. How it is done:
as §2

The subject of a further data set is E. coli DPD2444 (yhcP−). The data set can be described thus: microbe, parasite or virus in culture. The protocol:
(§3) Additional compounds were tested for growth inhibition of E. coli MG1655 (yhcP^+) and DPD2444 (yhcP^−) in Vogel-Bonner medium with glucose as the carbon source and with 0.01% tetrazolium violet added as an indicator of viability. A series of two-fold dilutions of each chemical was made to the wells of a clear 96-well microplate in 50 μl volume. To these wells was added 50 μl of an overnight culture in Vogel Bonner medium with glucose as a carbon source of either MG1655 or DPD2444 that had been previously diluted 500-fold into fresh medium. The plates were incubated at 37° C. without shaking for 16 to 18 hours. The purple color in each well was visually scored. A score of 4+ indicated full purple color equivalent to a no chemical control well. Scores of 3+, 2+, or 1+ indicated decreasing amounts of purple color. A score of − indicated the complete absence of color. The MIC was defined as the lowest tested concentration that gave complete absence of color. The rank of difference between strains was defined as the score of pigment color for E. coli MG1655 in wells containing the concentration of a given chemical at the MIC for DPD24444. When MG1655 had no color, the score was 0. When MG 1655 was scored at 1+, the score was 1, when scored at 2+, the score was 2, etc.

The next data set relates to E. coli MG1655 (yhcP+). The data set can be described thus: microbe, parasite or virus in culture. How it is done: as §3
The subject of data set [4] is E. coli strain DPD4055 (MG1655 with pTrcHis2TOPO®/lacZ). The data set can be described thus: growth and CFU/ml in defined medium containing pHCA. The protocol: (§4) The plasmid pDEW668 (described in Example 2) that carries the E. coli yhcRQP pHCA efflux system was moved by transformation into E. coli strain MG1655 obtained from the American Type Culture Collection, Manassas, Va. (ATCC #700926. lot # 2660700) to form strain DPD4057. For a control, plasmid pTrcHis2TOPO®/lacZ was also put into the same host strain, making strain DPD4055. E. coli strains DPD4055 and DPD4057 were grown overnight at 37° C. in a defined medium made with 4 g/l (NH4)2SO4, 1.26 g/l KH2PO4, 2.42 g/l K2HPO4, 0.5 g/l MgSO4.7H2O, 30 mM MOPSO, pH 7.0, 1 mg/l thiamin, 50 mg/l citric acid, 7.5 mg/l CaCl2.2H2O, 25 mg/l FeSO4.7H2O, 1.95 mg/l ZnSO4.7H2O, 1.9 mg/l CuSO4.5H2O, 1.0 mg/l CoCl2.6H2O, 1.5 mg/l MnCl2.4H2O, 7.5 g/l glucose, and 25 μg/ml ampicillin. The next day, tubes with 1.0 ml of the same medium containing 7.5, 5.0, 3.3, 2.2, 1.5, or 0 g/l pHCA were inoculated with 10 μl of the overnight cultures. These tubes were grown at 37° C. on a roller drum in the dark for 1 to 2 days. At 21 hours after inoculation, the tube with 5.0 g/l pHCA inoculated with DPD4057 had visible growth. In contrast, strain DPD4055 had visible growth at 2.2 g/l pHCA, but not higher.
(§5) At 48 hours of incubation, the CFU/ml of the cultures growing in the presence of 7.5 g/l pHCA was determined by plating dilutions onto LB plates. Strain DPD4055 had 2×10^2 CFU/ml. Strain DPD4057 had 8×10^7 CFU/ml. The inoculum for each culture was 2×10^7 CFU/ml. […] In contrast, the culture carrying multicopy yhcRQP increased in CFU/ml.

Data set [5] relates to E. coli strain DPD4057 (MG1655 with pDEW668, multicopy yhcRQP). The description is as above. How it is done: as §4, §5
Data set [6] concerns yhcP gene (co-transcribed with yhcQ and yhcR). The data set can be described thus: expression of yhcP upon treatment of E. coli cells with aromatic carboxylic acids.

Molecules are shown by their SMILES. ≈ marks a conversion by molar mass, not a printed value.

As for `O=C(O)C=Cc1ccc(O)cc1` [pHCA, para-hydroxycinnamic acid], the MIC in data set [1] is 12 mM (≈ 1970 µg/mL); in the data set with E. coli strain MG1655 it was 50 mM (≈ 8210 µg/mL); in data set [2], 50 mM (≈ 8210 µg/mL); in data set [3] (Escherichia coli, MG1655, read-out: MIC for pHCA), 100 mM (≈ 16400 µg/mL); with E. coli DPD2444 (yhcP−) (Escherichia coli, read-out: MIC, DPD2444 (yhcP−)), 10 mM (≈ 1640 µg/mL); in the data set with E. coli MG1655 (yhcP+) (Escherichia coli, MG1655, read-out: MIC, MG1655 (yhcP+)) it was 40 mM (≈ 6570 µg/mL). The “increased resistance to pHCA by multicopy expression of the yhcRQP operon” value in data set [3] (DPD3314 versus DPD3313) is “two-fold”. Moreover, the “Fold Diff” value in the data set with E. coli DPD2444 (yhcP−) (MIC MG1655 versus MIC DPD2444) came to 4. Moreover, the “defined as substrate of the YhcP efflux pump by this genetic test” value in the data set with E. coli DPD2444 (yhcP−) (MIC difference at least 2-fold and rank at least 2) is on record as “substrates of the YhcP efflux pump”. Further, the “Rank Diff” value with E. coli MG1655 (yhcP+) (score of pigment color for MG1655 at the MIC for DPD2444 (0 = no color, 4 = full purple color)) is reported as 2. Also, the “effect of pHCA on the strain without the multicopy yhcRQP genes (in words)” value in data set [4] (7.5 g/l pHCA, 48 hours) is “bactericidal effect”. Moreover, the “CFU/ml of culture in the presence of pHCA” value is given as 2×10^2 CFU/ml in [4] (7.5 g/l pHCA, 48 hours, DPD4055, inoculum 2×10^7 CFU/ml) and 8×10^7 CFU/ml in data set [5] (7.5 g/l pHCA, 48 hours, DPD4057, inoculum 2×10^7 CFU/ml). The “pHCA concentration with visible growth, but not higher” value in data set [4] (21 hours after inoculation, defined medium, 37° C., DPD4055, tested 7.5, 5.0, 3.3, 2.2, 1.5 g/l) worked out at 2.2 g/l. Moreover, the “pHCA concentration with visible growth” value in data set [5] (21 hours after inoculation, defined medium, 37° C., DPD4057, tested 7.5, 5.0, 3.3, 2.2, 1.5 g/l) stood at 5.0 g/l. For the same compound, in [5] (DPD4057 versus DPD4055, 21 hours), the “fold improvement in pHCA tolerance by multicopy expression of yhcRQP” value is 2.3 fold. In addition, the “expression of the yhcP gene upon treatment of E. coli cells” value in data set [6] is on record as “highly upregulated”.
